In patent publication US12275731B2, “Azaindole inhibitors of wild-type and mutant forms of LRRK2” (DANA-FARBER CANCER INSTITUTE, INC., priority 2018, dated 2025):

How the values were obtained:
Assay in all cases: KinomeScan profiling
Format in all cases: binding
[1] = biological target: T1, RPS6KA4(Kin.Dom.2-C-terminal) (Homo sapiens, UniProt O75676); conditions: read-out: % control
T1 construct: RPS6KA4(Kin.Dom.2-C-terminal)
Method in brief: (§1)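 Test agents were profiled at a single concentration of 1 μM (DMSO vehicle) on a near-complete set of 468 kinases. Signal is reported relative to vehicle (100%) and a fully displacing control (0%).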

FLT3(D835Y) = biological target: T2, FLT3(D835Y) (Homo sapiens, UniProt P36888, D835Y); conditions: read-out: % control
T2 sequence (P36888 27-993 D835Y): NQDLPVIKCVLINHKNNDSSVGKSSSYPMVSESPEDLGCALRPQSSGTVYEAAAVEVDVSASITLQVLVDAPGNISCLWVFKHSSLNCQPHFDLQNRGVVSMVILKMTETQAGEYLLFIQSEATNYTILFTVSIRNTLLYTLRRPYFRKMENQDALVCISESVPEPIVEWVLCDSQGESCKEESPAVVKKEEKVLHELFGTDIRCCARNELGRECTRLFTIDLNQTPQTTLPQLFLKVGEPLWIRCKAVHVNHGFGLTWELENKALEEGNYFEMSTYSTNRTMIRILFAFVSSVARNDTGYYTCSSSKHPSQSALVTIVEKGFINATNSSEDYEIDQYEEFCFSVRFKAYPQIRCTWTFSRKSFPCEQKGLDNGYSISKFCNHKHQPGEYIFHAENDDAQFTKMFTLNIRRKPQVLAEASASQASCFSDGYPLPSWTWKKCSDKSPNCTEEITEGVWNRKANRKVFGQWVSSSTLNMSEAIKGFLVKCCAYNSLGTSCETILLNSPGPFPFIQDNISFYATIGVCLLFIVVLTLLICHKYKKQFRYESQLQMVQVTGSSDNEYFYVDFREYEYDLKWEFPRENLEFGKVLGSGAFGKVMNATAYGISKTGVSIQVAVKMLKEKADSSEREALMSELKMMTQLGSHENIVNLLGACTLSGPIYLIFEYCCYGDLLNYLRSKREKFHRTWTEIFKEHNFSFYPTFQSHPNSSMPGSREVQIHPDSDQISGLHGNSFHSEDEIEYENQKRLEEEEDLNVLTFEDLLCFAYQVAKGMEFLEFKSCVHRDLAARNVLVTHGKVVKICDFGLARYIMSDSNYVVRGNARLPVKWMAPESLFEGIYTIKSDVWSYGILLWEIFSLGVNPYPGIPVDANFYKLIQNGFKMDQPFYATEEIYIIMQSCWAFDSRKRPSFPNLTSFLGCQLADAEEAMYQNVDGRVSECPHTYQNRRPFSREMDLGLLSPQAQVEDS
Method in brief: as §1

CASK = biological target: T3, CASK (Homo sapiens, UniProt O14936); conditions: read-out: % control
T3 sequence (O14936 1-926): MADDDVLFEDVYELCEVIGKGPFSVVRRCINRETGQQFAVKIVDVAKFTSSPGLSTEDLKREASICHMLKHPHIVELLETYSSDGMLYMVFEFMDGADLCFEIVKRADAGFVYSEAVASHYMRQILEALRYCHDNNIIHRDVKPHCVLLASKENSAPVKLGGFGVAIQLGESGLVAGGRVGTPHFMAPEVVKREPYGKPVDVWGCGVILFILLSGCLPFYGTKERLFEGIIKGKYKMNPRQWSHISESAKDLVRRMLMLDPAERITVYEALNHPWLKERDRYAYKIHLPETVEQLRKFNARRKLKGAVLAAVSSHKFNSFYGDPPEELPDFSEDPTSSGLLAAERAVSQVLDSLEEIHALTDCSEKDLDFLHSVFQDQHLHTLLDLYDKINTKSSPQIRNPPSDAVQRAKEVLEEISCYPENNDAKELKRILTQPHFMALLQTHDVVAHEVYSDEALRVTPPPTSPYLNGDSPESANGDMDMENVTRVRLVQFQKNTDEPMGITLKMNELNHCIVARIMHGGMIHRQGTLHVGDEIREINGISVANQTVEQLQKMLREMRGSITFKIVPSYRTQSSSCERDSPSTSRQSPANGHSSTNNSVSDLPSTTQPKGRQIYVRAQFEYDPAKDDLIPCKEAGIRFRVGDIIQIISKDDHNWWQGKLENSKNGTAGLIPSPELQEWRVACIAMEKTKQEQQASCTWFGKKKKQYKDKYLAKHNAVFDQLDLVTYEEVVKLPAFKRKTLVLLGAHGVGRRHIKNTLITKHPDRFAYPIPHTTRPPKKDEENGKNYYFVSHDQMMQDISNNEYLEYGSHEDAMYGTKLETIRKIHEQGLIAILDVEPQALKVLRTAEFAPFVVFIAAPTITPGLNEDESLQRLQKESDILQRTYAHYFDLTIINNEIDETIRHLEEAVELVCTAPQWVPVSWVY
Method in brief: as §1

HPK1 = HPK1 (Homo sapiens, UniProt Q92918); conditions: HPK1, 1 μM; read-out: % control
Method in brief: as §1

CSF1R-autoinhibited = biological target: T4, CSF1R-autoinhibited (Homo sapiens, UniProt P07333); conditions: read-out: % control
T4 sequence (P07333 539-972 limits assumed): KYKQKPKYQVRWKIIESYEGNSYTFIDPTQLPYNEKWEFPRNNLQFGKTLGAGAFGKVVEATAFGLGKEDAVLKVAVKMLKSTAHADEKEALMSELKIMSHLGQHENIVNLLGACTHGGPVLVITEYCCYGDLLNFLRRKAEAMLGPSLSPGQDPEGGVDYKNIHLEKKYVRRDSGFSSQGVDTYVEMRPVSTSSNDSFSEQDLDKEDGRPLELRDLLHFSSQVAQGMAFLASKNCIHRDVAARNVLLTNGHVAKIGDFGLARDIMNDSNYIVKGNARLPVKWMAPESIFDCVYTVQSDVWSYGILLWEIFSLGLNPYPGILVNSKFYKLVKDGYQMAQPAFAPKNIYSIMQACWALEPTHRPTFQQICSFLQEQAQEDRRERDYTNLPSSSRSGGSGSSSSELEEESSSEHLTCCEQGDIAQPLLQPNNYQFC
Method in brief: as §1

T1 sequence (O75676 411-674 limits assumed): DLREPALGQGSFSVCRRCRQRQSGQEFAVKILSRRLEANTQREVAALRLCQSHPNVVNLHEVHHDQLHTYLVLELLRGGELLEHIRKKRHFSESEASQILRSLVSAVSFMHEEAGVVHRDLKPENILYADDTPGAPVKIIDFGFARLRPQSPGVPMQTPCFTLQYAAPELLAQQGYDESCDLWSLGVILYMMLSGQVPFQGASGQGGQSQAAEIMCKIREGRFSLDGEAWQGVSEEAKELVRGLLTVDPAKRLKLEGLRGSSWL
HPK1, sequence (Q92918 whole entry): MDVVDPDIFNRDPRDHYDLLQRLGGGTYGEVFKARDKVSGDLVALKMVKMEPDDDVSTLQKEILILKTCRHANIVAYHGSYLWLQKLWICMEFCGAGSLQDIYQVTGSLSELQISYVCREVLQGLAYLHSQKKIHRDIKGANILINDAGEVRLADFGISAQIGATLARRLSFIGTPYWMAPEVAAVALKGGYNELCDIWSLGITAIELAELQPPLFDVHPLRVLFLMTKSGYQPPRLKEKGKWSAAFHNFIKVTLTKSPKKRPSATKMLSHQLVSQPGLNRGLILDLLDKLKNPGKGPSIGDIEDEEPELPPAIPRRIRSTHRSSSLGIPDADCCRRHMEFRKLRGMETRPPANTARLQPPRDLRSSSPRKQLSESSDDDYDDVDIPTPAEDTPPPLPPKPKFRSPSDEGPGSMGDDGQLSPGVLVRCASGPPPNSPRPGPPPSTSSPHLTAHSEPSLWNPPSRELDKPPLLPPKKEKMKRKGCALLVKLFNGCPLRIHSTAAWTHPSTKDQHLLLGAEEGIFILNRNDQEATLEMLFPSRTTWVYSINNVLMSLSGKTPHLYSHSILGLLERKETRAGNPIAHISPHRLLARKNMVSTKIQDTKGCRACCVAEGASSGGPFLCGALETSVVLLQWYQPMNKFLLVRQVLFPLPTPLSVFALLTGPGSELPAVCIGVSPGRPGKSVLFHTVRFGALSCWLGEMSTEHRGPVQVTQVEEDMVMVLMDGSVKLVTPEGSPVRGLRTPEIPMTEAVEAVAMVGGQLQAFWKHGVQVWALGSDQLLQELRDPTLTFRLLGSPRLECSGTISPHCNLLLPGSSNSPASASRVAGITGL

Row | Structure (SMILES) | remaining binding at 1 µM [1] | remaining binding at 1 µM (FLT3(D835Y)) | remaining binding at 1 µM (CASK) | remaining binding at 1 µM (HPK1) | remaining binding at 1 µM (CSF1R-autoinhibited)
1 | O=C(c1ccc(-c2cnc3[nH]cc(Cl)c3c2NC2CCCC2)cc1)N1CCC(N2CCOCC2)CC1 [Compound 101, (4-(3-chloro-4-(cyclopentylamino)-1H-pyrrolo[2,3-b]pyridin-5-yl)phenyl)(4-morpholinopiperidin-1-yl)methanone] | 99% | 33% | 100% | 53% | 3.2%
2 | CNc1c(-c2cnn([C@H]3CCN(C(C)=O)C[C@@H]3F)c2)cnc2[nH]cc(Cl)c12 [Compound 77, 1-((3S,4S)-4-(4-(3-chloro-4-(methylamino)-1H-pyrrolo[2,3-b]pyridin-5-yl)-1H-pyrazol-1-yl)-3-fluoropiperidin-1-yl)ethan-1-one] | 90% | 9.7% | 95% | 6.7% | 30%
3 | CNc1c(-c2ccc(C(=O)N3CCC(N4CCOCC4)CC3)cc2)cnc2[nH]cc(Cl)c12 [Compound 96, (4-(3-chloro-4-(methylamino)-1H-pyrrolo[2,3-b]pyridin-5-yl)phenyl)(4-morpholinopiperidin-1-yl)methanone] | 65% | 11% | 94% | 84% | 49%
